Test results as given in US20170319480A1, “PHARMACEUTICAL FORMULATION” (Boehringer Ingelheim International GmbH, priority 2014, published 2017).

Assay: Bioavailability of afatinib in fed state
Type: in vivo
Conditions: adults
Description: As decreased bioavailability of afatinib has been observed in adults ad fed state, the oral solution is not intended to be administered with food or drinks.

CN(C)C/C=C/C(=O)Nc1cc2c(Nc3ccc(F)c(Cl)c3)ncnc2cc1O[C@H]1CCOC1 [afatinib, 4-[(3-chloro-4-fluorophenyl)amino]-6-{[4-(N,N-dimethylamino)-1-oxo-2-buten-1-yl]amino}-7-((S)-tetrahydrofuran-3-yloxy)-quinazoline]
bioavailability in fed state: decreased
